Measurements as given in PubChem BioAssay (NCI).
“And” between values parts separate entries of the source, which are not always exact repeats. Identical values can stand only once.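 Following 48 hours of exposure in 96-well plates, responses at five concentrations were used to interpolate endpoints linearly. GI50: concentration for 50% inhibition of growth. TGI is the concentration that stops growth completely.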

Assays:
Assay in all cases: growth of human tumour cells (NCI), 48 h
SK-MEL-5 melanoma = tested on: SK-MEL-5 melanoma
HOP-62 NSCLC = tested on: HOP-62 NSCLC
SK-MEL-2 melanoma = tested on: SK-MEL-2 melanoma
NCI-H460 lung = tested on: NCI-H460 lung
NCI/ADR-RES ovarian = tested on: NCI/ADR-RES ovarian
HL-60(TB) leukemia = tested on: HL-60(TB) leukemia
MCF7 breast = tested on: MCF7 breast
A498 renal = tested on: A498 renal
K-562 leukemia = tested on: K-562 leukemia
TK-10 renal = tested on: TK-10 renal

## CCCCCCCCn1ccc2cc(NC(=O)Cn3cc(CN4CCC(C)CC4)nn3)ccc21
SK-MEL-5 melanoma
  GI50: 1.72 µM
  TGI: 3.09 µM
HOP-62 NSCLC
  GI50: 1.76 µM
  TGI: 3.4 µM
SK-MEL-2 melanoma
  GI50: 1.85 µM
  TGI: 3.53 µM
NCI-H460 lung
  GI50: 1.7 µM
  TGI: 3.22 µM
NCI/ADR-RES ovarian
  GI50: 1.92 µM
  TGI: 3.99 µM
HL-60(TB) leukemia
  GI50: 1.77 µM
  TGI: 3.58 µM
MCF7 breast
  GI50: 1.65 µM
  TGI: 3.25 µM
A498 renal
  GI50: 1.6 µM
  TGI: 3.27 µM
K-562 leukemia
  GI50: 1.61 µM
  TGI: 3.51 µM
TK-10 renal
  GI50: 1.7 µM
  TGI: 3.21 µM

## O=C1c2ccccc2C(=O)c2c(NCCNCCO)ccc(NCCNCCO)c21
SK-MEL-5 melanoma
  GI50: 1.41 µM and 1.13 µM and 1.09 µM
  TGI: 3.34 µM and 2.87 µM and 2.86 µM
HOP-62 NSCLC
  GI50: 0.422 µM and 0.473 µM and 0.509 µM
  TGI: 4.19 µM and 3.82 µM and 4.76 µM
SK-MEL-2 melanoma
  GI50: 2.22 µM and 2.7 µM and 2.09 µM
  TGI: 5.79 µM and 16.7 µM and 3.77 µM
NCI-H460 lung
  GI50: 0.127 µM and 0.158 µM and 0.189 µM
  TGI: 1.91 µM and 3.38 µM and 2.16 µM
NCI/ADR-RES ovarian
  GI50: 42.8 µM and 99.2 µM and > 100 µM
  TGI: > 100 µM
HL-60(TB) leukemia
  GI50: 0.274 µM and 0.13 µM and 0.456 µM
  TGI: 8.67 µM and 10.6 µM
MCF7 breast
  GI50: 0.0479 µM and 0.0696 µM and 0.069 µM
  TGI: 0.948 µM and 2.39 µM and 4.99 µM
A498 renal
  GI50: 0.193 µM and 1.37 µM and 0.565 µM
  TGI: 1.11 µM and 7 µM and 3.61 µM
K-562 leukemia
  GI50: 2.47 µM and 2.08 µM and 2.38 µM
  TGI: > 32.1 µM and 33.3 µM and 11.4 µM
TK-10 renal
  GI50: 2.89 µM and 2.55 µM and 1.33 µM
  TGI: 24.6 µM and 22.5 µM and 8.88 µM

## Cc1ccc(C2NC(=S)N3C(c4ccc(C)cc4)NC(=S)N23)cc1 (stereo not drawn)
SK-MEL-5 melanoma
  GI50: 3.88 µM
  TGI: 14.3 µM
HOP-62 NSCLC
  GI50: 5.89 µM
  TGI: 20.1 µM
SK-MEL-2 melanoma
  GI50: 3.4 µM
  TGI: 12.1 µM
NCI-H460 lung
  GI50: 3.82 µM
  TGI: 13.1 µM
NCI/ADR-RES ovarian
  GI50: 2.33 µM
  TGI: 6.19 µM
HL-60(TB) leukemia
  GI50: 1.88 µM
  TGI: 5.67 µM
MCF7 breast
  GI50: 2.73 µM
  TGI: 12.9 µM
A498 renal
  GI50: 5.57 µM
  TGI: 18 µM
K-562 leukemia
  GI50: 1.01 µM
  TGI: 12 µM
TK-10 renal
  GI50: 12.3 µM
  TGI: 26.9 µM

## O=C1c2ccccc2-c2c1c1c(O)cccc1n2CCCc1ccccc1
SK-MEL-5 melanoma
  GI50: 12.6 µM
  TGI: 27.8 µM
HOP-62 NSCLC
  GI50: 43 µM
  TGI: > 100 µM
SK-MEL-2 melanoma
  GI50: 18.5 µM
  TGI: 87.3 µM
NCI-H460 lung
  GI50: 29.7 µM
  TGI: > 100 µM
NCI/ADR-RES ovarian
  GI50: 4.47 µM
  TGI: 51.1 µM
HL-60(TB) leukemia
  GI50: 28.1 µM
  TGI: > 100 µM
MCF7 breast
  GI50: 48.4 µM
  TGI: > 100 µM
A498 renal
  GI50: 17.3 µM
  TGI: 43.2 µM
K-562 leukemia
  GI50: 22.7 µM
  TGI: > 100 µM
TK-10 renal
  GI50: 10.1 µM
  TGI: 56.7 µM

## O=C(O)CN(CC(=O)O)c1ccccc1
SK-MEL-5 melanoma
  TGI: > 100 µM
HOP-62 NSCLC
  TGI: > 100 µM
SK-MEL-2 melanoma
  TGI: > 100 µM
NCI-H460 lung
  TGI: > 100 µM
NCI/ADR-RES ovarian
  TGI: > 100 µM
HL-60(TB) leukemia
  TGI: > 100 µM
MCF7 breast
  TGI: > 100 µM
A498 renal
  TGI: > 100 µM
K-562 leukemia
  TGI: > 100 µM
TK-10 renal
  TGI: > 100 µM

## NC(Cc1ccc(O)cc1)C(=O)N/N=C/c1ccc(N(CCCl)CCCl)cc1 (stereo not drawn)
SK-MEL-5 melanoma
  GI50: 19.5 µM
  TGI: > 100 µM
HOP-62 NSCLC
  GI50: 11.1 µM
  TGI: > 100 µM
SK-MEL-2 melanoma
  GI50: 60.6 µM
  TGI: > 100 µM
NCI-H460 lung
  GI50: 0.647 µM
  TGI: 26.7 µM
NCI/ADR-RES ovarian
  GI50: 17.3 µM
  TGI: > 100 µM
HL-60(TB) leukemia
  GI50: 0.0757 µM
  TGI: 14.6 µM
MCF7 breast
  GI50: 7.52 µM
  TGI: > 100 µM
A498 renal
  GI50: 9.78 µM
  TGI: 59.5 µM
K-562 leukemia
  GI50: 3.59 µM
  TGI: > 100 µM
TK-10 renal
  GI50: 25.2 µM
  TGI: > 100 µM

## CS(=O)/C(C#N)=C\C=C\c1cccc(Cl)c1 (stereo not drawn)
SK-MEL-5 melanoma
  GI50: 1.87 µM
  TGI: 3.96 µM
HOP-62 NSCLC
  GI50: 4.56 µM
  TGI: 16.2 µM
SK-MEL-2 melanoma
  GI50: 4.44 µM
  TGI: 19.1 µM
NCI-H460 lung
  GI50: 2.41 µM
  TGI: 11.2 µM
NCI/ADR-RES ovarian
  GI50: 2.66 µM
  TGI: 37.7 µM
HL-60(TB) leukemia
  GI50: 2.38 µM
  TGI: 7.61 µM
MCF7 breast
  GI50: 0.579 µM
  TGI: 5.72 µM
A498 renal
  GI50: 12.4 µM
  TGI: 25 µM
K-562 leukemia
  GI50: 2.51 µM
  TGI: > 100 µM
TK-10 renal
  GI50: 5.59 µM
  TGI: 17.5 µM

## Nc1ncnc2c1nc(N)n2C1OC(CO)C(O)C1O (stereo not drawn)
SK-MEL-5 melanoma
  GI50: 1.25 µM
  TGI: 2.61 µM
HOP-62 NSCLC
  GI50: 0.311 µM
  TGI: 2.71 µM
SK-MEL-2 melanoma
  GI50: 0.72 µM
  TGI: 2.92 µM
NCI-H460 lung
  GI50: 0.454 µM
  TGI: 1.93 µM
NCI/ADR-RES ovarian
  GI50: 0.697 µM
  TGI: 3.29 µM
HL-60(TB) leukemia
  GI50: 0.376 µM
  TGI: 3.67 µM
MCF7 breast
  GI50: 0.389 µM
  TGI: 10.4 µM
A498 renal
  GI50: 0.657 µM
  TGI: 1.94 µM
K-562 leukemia
  GI50: 0.271 µM
  TGI: > 100 µM
TK-10 renal
  GI50: 0.458 µM

## CCCCCCCCCCCCNC(=O)[C@H]1CSC(c2cc(Br)cs2)N1 (stereo partly drawn)
SK-MEL-5 melanoma
  GI50: 5.57 µM
  TGI: 11.8 µM
HOP-62 NSCLC
  GI50: 0.822 µM
  TGI: 1.56 µM
SK-MEL-2 melanoma
  GI50: 0.916 µM
  TGI: 1.77 µM
NCI-H460 lung
  GI50: 0.991 µM
  TGI: 1.99 µM
NCI/ADR-RES ovarian
  GI50: 1.11 µM
  TGI: 2.47 µM
HL-60(TB) leukemia
  GI50: 1.01 µM
  TGI: 2.49 µM
MCF7 breast
  GI50: 2.16 µM
  TGI: 8.82 µM
A498 renal
  GI50: 7.38 µM
  TGI: 14.1 µM
K-562 leukemia
  GI50: 1.13 µM
  TGI: 2.46 µM
TK-10 renal
  GI50: 0.951 µM
  TGI: 1.82 µM

## O=C1/C(=C\c2ccc([N+](=O)[O-])cc2)CS(=O)(=O)C/C1=C/c1ccc([N+](=O)[O-])cc1
SK-MEL-5 melanoma
  GI50: 0.4 µM
  TGI: 3.03 µM
HOP-62 NSCLC
  GI50: 0.284 µM
  TGI: 3.94 µM
SK-MEL-2 melanoma
  GI50: 0.366 µM
  TGI: 3.17 µM
NCI-H460 lung
  GI50: 0.256 µM
  TGI: 2.48 µM
NCI/ADR-RES ovarian
  GI50: 0.315 µM
  TGI: 3.15 µM
HL-60(TB) leukemia
  GI50: 0.0138 µM
  TGI: 0.145 µM
MCF7 breast
  GI50: 0.157 µM
  TGI: 2.12 µM
A498 renal
  GI50: 0.332 µM
  TGI: 0.966 µM and 3.37 µM
K-562 leukemia
  TGI: > 100 µM
TK-10 renal
  GI50: 0.992 µM
  TGI: 2.97 µM

## COc1cc(-c2ccc(Nc3ccccc3C(=O)O)c(OC)c2)ccc1Nc1ccccc1C(=O)O
SK-MEL-5 melanoma
  TGI: > 100 µM
HOP-62 NSCLC
  TGI: 49.8 µM
SK-MEL-2 melanoma
  TGI: 58.6 µM
NCI-H460 lung
  TGI: 36.7 µM
NCI/ADR-RES ovarian
  TGI: > 100 µM
HL-60(TB) leukemia
  TGI: 65.8 µM
MCF7 breast
  TGI: > 100 µM
A498 renal
  TGI: > 96.5 µM
K-562 leukemia
  TGI: > 100 µM
TK-10 renal
  TGI: > 89 µM

## COc1ccccc1N(C(C)=O)C1=C(Cl)C(=O)c2ccccc2C1=O
SK-MEL-5 melanoma
  GI50: 1.19 µM
  TGI: 2.63 µM
HOP-62 NSCLC
  GI50: 3.03 µM
  TGI: 12.6 µM
SK-MEL-2 melanoma
  GI50: 1.89 µM
  TGI: 4.57 µM
NCI-H460 lung
  GI50: 3.17 µM
  TGI: 12.2 µM
NCI/ADR-RES ovarian
  GI50: 2.52 µM
  TGI: 11.5 µM
HL-60(TB) leukemia
  GI50: 2.24 µM
  TGI: 5.53 µM
MCF7 breast
  GI50: 2.4 µM
  TGI: 10.5 µM
A498 renal
  GI50: 1.54 µM
  TGI: 7.69 µM
K-562 leukemia
  GI50: 2.23 µM
  TGI: 7.67 µM
TK-10 renal
  GI50: 1.87 µM
  TGI: 3.3 µM

## O=C(NCCSSCCNC(=O)/C(Cc1ccc(O)c(Br)c1)=N/O)/C(Cc1ccc(O)c(Br)c1)=N/O
SK-MEL-5 melanoma
  TGI: 2.33 µM
HOP-62 NSCLC
  TGI: 6.1 µM
SK-MEL-2 melanoma
  TGI: 3.26 µM
NCI-H460 lung
  TGI: > 20.6 µM
NCI/ADR-RES ovarian
  TGI: 7.97 µM
HL-60(TB) leukemia
  TGI: > 22.6 µM
MCF7 breast
  TGI: 8.21 µM
A498 renal
  TGI: 14.7 µM
K-562 leukemia
  TGI: > 50 µM
TK-10 renal
  TGI: > 22.4 µM

## Cc1ccc(-n2nnc3c(sc4ccccc43)c2=O)cc1
SK-MEL-5 melanoma
  GI50: 28.1 µM
  TGI: > 100 µM
HOP-62 NSCLC
  GI50: 3.8 µM
  TGI: 26.5 µM
SK-MEL-2 melanoma
  GI50: 99 µM
  TGI: > 100 µM
NCI-H460 lung
  GI50: 4.19 µM
  TGI: > 100 µM
NCI/ADR-RES ovarian
  GI50: 9.35 µM
  TGI: > 100 µM
HL-60(TB) leukemia
  GI50: > 100 µM
  TGI: > 100 µM
MCF7 breast
  GI50: 43.7 µM
  TGI: > 100 µM
A498 renal
  GI50: 30.9 µM
  TGI: > 100 µM
K-562 leukemia
  GI50: > 100 µM
  TGI: > 100 µM
TK-10 renal
  GI50: 7.47 µM
  TGI: 50 µM
